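Briefly, cells in 96-well plates were exposed to five compound concentrations for 48 h, and endpoints were estimated by linear interpolation. TGI: total growth inhibition.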
Key:
Assay in all cases: inhibition of tumour cell growth, NCI panel, 48 h
786-0 renal = tested on: 786-0 renal
A498 renal = tested on: A498 renal
A549 NSCLC = tested on: A549 NSCLC
ACHN renal = tested on: ACHN renal
BT-549 breast = tested on: BT-549 breast
CAKI-1 renal = tested on: CAKI-1 renal
CCRF-CEM leukemia = tested on: CCRF-CEM leukemia
COLO 205 colon = tested on: COLO 205 colon
DU-145 prostate = tested on: DU-145 prostate
HCC-2998 colon = tested on: HCC-2998 colon
HCT-116 colon = tested on: HCT-116 colon
HCT-15 colon = tested on: HCT-15 colon
HL-60(TB) leukemia = tested on: HL-60(TB) leukemia
HOP-92 NSCLC = tested on: HOP-92 NSCLC
HS 578T breast = tested on: HS 578T breast
HT29 colon = tested on: HT29 colon
IGROV1 ovarian = tested on: IGROV1 ovarian
KM12 colon = tested on: KM12 colon
LOX IMVI melanoma = tested on: LOX IMVI melanoma
MALME-3M melanoma = tested on: MALME-3M melanoma
MCF7 breast = tested on: MCF7 breast
MDA-MB-231 breast = tested on: MDA-MB-231 breast
MDA-MB-435 = tested on: MDA-MB-435
MDA-N = tested on: MDA-N
NCI-H226 lung = tested on: NCI-H226 lung
NCI-H23 lung = tested on: NCI-H23 lung
NCI-H460 lung = tested on: NCI-H460 lung
NCI-H522 lung = tested on: NCI-H522 lung
NCI/ADR-RES ovarian = tested on: NCI/ADR-RES ovarian
OVCAR-4 ovarian = tested on: OVCAR-4 ovarian
OVCAR-8 ovarian = tested on: OVCAR-8 ovarian
PC-3 prostate = tested on: PC-3 prostate
SF-268 CNS = tested on: SF-268 CNS
SF-295 CNS = tested on: SF-295 CNS
SF-539 CNS = tested on: SF-539 CNS
SK-MEL-2 melanoma = tested on: SK-MEL-2 melanoma
SK-MEL-28 melanoma = tested on: SK-MEL-28 melanoma
SK-MEL-5 melanoma = tested on: SK-MEL-5 melanoma
SK-OV-3 ovarian = tested on: SK-OV-3 ovarian
SN12C renal = tested on: SN12C renal
SNB-19 CNS = tested on: SNB-19 CNS
SNB-75 CNS = tested on: SNB-75 CNS
SR leukemia = tested on: SR leukemia
SW-620 colon = tested on: SW-620 colon
T-47D breast = tested on: T-47D breast
TK-10 renal = tested on: TK-10 renal
U251 CNS = tested on: U251 CNS
UACC-257 melanoma = tested on: UACC-257 melanoma
UACC-62 melanoma = tested on: UACC-62 melanoma
UO-31 renal = tested on: UO-31 renal
EKVX NSCLC = tested on: EKVX NSCLC
HOP-62 NSCLC = tested on: HOP-62 NSCLC
K-562 leukemia = tested on: K-562 leukemia
M14 melanoma = tested on: M14 melanoma
MOLT-4 leukemia = tested on: MOLT-4 leukemia
OVCAR-5 ovarian = tested on: OVCAR-5 ovarian
RPMI-8226 leukemia = tested on: RPMI-8226 leukemia
RXF 393 renal = tested on: RXF 393 renal

Measured: TGI

c1cncc(CC2(c3cc4ccccc4[nH]3)OCCO2)c1
not listed: EKVX NSCLC | HOP-62 NSCLC | K-562 leukemia | M14 melanoma | MOLT-4 leukemia | OVCAR-5 ovarian | RPMI-8226 leukemia | RXF 393 renal
> 100 µM: all other assays above

O=c1c(Cc2ccc(Cl)cc2)nnc2sc(-c3ccc(-c4ccc(F)c(Cl)c4)o3)nn12
not listed: SNB-75 CNS | SR leukemia
> 100 µM: all other assays above
